# Measured values taken from patent publication US8394758B2, “Tumor-targeting peptides and uses thereof” (Academia Sinica, priority 2008, dated 2013).
# How the values were obtained:
# [1] = test system: H460 cells (lung cancer) xenografts; experiment: In vivo homing of phage clones to lung cancer xenografts, alone or with synthetic peptide (phage titer); design: species or system SCID mice; details: 100 μg synthetic peptide co-injected
# Protocol: Eight minutes after the injection, the phage-treated SCID mice were perfused with 50 ml PBS to wash away phage particles unbound to tissues. Normal organs (e.g., lung, heart, brain) and tumor mass were removed from the mice, weighed, washed with PBS, and homogenized to release tissue-bound phage particles, if any. The released phage particles were titered using bacterium ER2738 (New England BioLabs, MA, USA) grown on IPTG-X-gal-containing agar plates, and amplified in the same bacterium following the manufacturer's protocol.
# H460 cells (a lung cancer cell line) were injected subcutaneously (s.c.) into the dorsolateral flanks of SCID mice (4-6 weeks of age) to form lung cancer xenografts. Each of phage clones IVO 2, IVO 8, and IVO 24, displaying peptide SVSVGMKPSPRP (SEQ ID NO:1), SNPFSKPYGLTV (SEQ ID NO:3), and YPHYSLPGSSTL (SEQ ID NO:5), respectively, was injected (i.v.) into the tail veins of the mice bearing the xenografts (˜100 mm^3), either alone or with 100 μg synthetic peptides SVSVGMKPSPRP (SEQ ID NO:1), SNPFSKPYGLTV (SEQ ID NO:3), or YPHYSLPGSSTL (SEQ ID NO:5). Normal organs and tumor mass were removed from these mice and processed as described in Example 1 above. The phage titers in the normal organs and tumor mass were determined following the procedure also described in Example 1.
# [2] = test system: lung tumor xenografts, tumor neovasculature; experiment: Immuno-staining of phage (anti-M13) and blood vessels (anti-CD31) in lung tumor xenografts and normal organs; type: in vivo, SCID mice
# Description: The accumulation of the phage clones in tumor mass was further examined by an immuno-staining assay, using an anti-M13 phage monoclonal antibody (Amersham Biosciences, Uppsala, Sweden). Briefly, after injection of the phage clones, normal organ samples and tumor samples were obtained, each divided into two parts. Bound phage particles were released from one part of the samples and titered using bacterium ER2738. The other part of each of the samples was embedded in Optimal Cutting Temperature (OCT, Tissue-Tek, NL, USA). The OCT-embedded samples (frozen) were sectioned (5 micron) and transferred to cold PBS. The sections were fixed with acetone-methanol (1:1) on slides, washed with PBS, and immersed in a blocking buffer (1% BSA in PBS) for 1 h. Then, the slides were incubated with rat anti-mouse CD31 antibody (an antibody recognizing blood vessels; BD Pharmingen, MA, USA.) and rabbit anti-rat Ig antibody (Stressgen, Canada), and immersed in Rhodamine labeled goat anti-rabbit Ig antibody (Jackson ImmunoResearch, PA, USA). The slides were further incubated with mouse anti-M13 phage monoclonal antibody (Amersham Biosciences, Uppsala, Sweden), then with FITC-labeled goat anti-mouse Ig antibody (Jackson ImmunoResearch, PA, USA), and finally immersed in a solution containing Hoechst 33258 (Molecular Probe, OR, USA). After being washed and mounted with a mounting medium (Vector, Calif., USA), the slides were examined under a Leica Confocal Microscope (TCS-SP5-AOBS). Images of the slides were processed with the Leica Application Suite Advanced Fluorescence software.
# [3] = test system: tumor xenografts; experiment: Histopathology of tumor tissues by H&E staining; type: in vivo, SCID mice; details: doxorubicin 1 mg/kg twice a week for four weeks
# Protocol: Mouse body weights and tumor lengths/widths were measured twice a week with calipers. The volume of a tumor was calculated using the formula: length×(width)×0.52.
# [4] = test system: Non-small cell lung cancer xenografts; experiment: Doxorubicin levels in tumor tissue and tumor cell nuclei (spectrofluorometry); type: in vivo, SCID mice; details: 2 mg/kg doxorubicin
# Protocol: Non-small cell lung cancer xenografts (˜300 mm^3) were induced in SCID mice following the method described in Example 2 above. These mice were treated with PIVO-2-LD, PIVO-8-LD, PIVO-24-LD, LD, and FD at a doxorubicin dose of 2 mg/kg and sacrificed 1 h, 4 h, or 24 h later. Blood samples were collected from the mice via submaxillary punctures and plasma samples were prepared therefrom. In addition, xenografts and normal organs were removed, part of them being homogenized to isolate cell nuclei. Doxorubicin was extracted either from the tumor tissue or from the nuclei following the method described in Laginha et al., Clin. Cancer Res. 11:6944-6949, 2005 and Mayer et al., J. Pharmacol. Exp. Ther. 280:1406-1414, 1997. The amount of doxorubicin was determined by spectrofluorometry at λex 485/20 nm and λcm 645/40 nm (Synergy HT Multi-Detection Microplate Reader, BioTek Instruments, Winooski, Vt. 05404 USA). Based on the amounts of doxorubicin in tumor tissues at different time points, concentration-time curves of doxorubicin were prepared and the areas under the curves from 0-48 hours (AUC0-48 hours) were determined.
compound,measurement,setting,value
YPHYSLPGSSTL (Tumor-Targeting Peptide),inhibition by synthetic peptide of accumulation in tumor mass of the phage clone displaying the same peptide,[1],inhibited accumulation
same,blocking by synthetic peptide of binding of the corresponding phage clone to lung tumor tissues,[2],blocked binding
"COc1cccc2c1C(=O)c1c(O)c3c(c(O)c1C2=O)C[C@@](O)(C(=O)CO)C[C@@H]3O[C@H]1C[C@H](N)[C@H](O)[C@H](C)O1 [FD, doxorubicin]",necrotic/apoptotic area (combined) in tumor xenografts,[3],only a moderate necrotic/apoptotic area
same,Nucleus (AUC0-48 h) doxorubicin,[4]; tumor cell nuclei (bioavailable doxorubicin),3.68 µg·h/g
same,Tumor (AUC0-48 h) doxorubicin,[4]; tumor tissue,10.23 µg·h/g
SVSVGMKPSPRP (Tumor-Targeting Peptide),inhibition by synthetic peptide of accumulation in tumor mass of the phage clone displaying the same peptide,[1],inhibited accumulation of phage clone IVO 2
same,blocking by synthetic peptide of binding of the corresponding phage clone to lung tumor tissues,[2],blocked binding
SNPFSKPYGLTV (Tumor-Targeting Peptide),inhibition by synthetic peptide of accumulation in tumor mass of the phage clone displaying the same peptide,[1],inhibited accumulation
same,blocking by synthetic peptide of binding of the corresponding phage clone to lung tumor tissues,[2],blocked binding
